Test results published in paper PMC5095062, “The novel choline kinase inhibitor ICL-CCIC-0019 reprograms cellular metabolism and inhibits cancer cell growth” (Oncotarget, 2016).

Assays:
Test in all cases: Kinase selectivity screen
Format in all cases: biochemical
Aurora B = Aurora B (Homo sapiens, UniProt Q96GD4)
Procedure: (§1) The substantially less demanding synthesis of ICL-CCIC-0019 compared with MN58B bears additional advantages. […] This consequently diminished intracellular PCho concentration, and importantly, the incorporation of [^3H]-choline into lipids (Figure 1D). […] To assess kinase specificity, ICL-CCIC-0019 was tested against a panel of 131 human kinases (Figure 1E and Supplementary Table S1). […] Inhibition greater than 20% was attained for insulin-like growth factor 1 (IGF-1R, 35 ± 7% inhibition), mitogen-activated protein kinase-activated protein kinase 3 (MAPKAP-K3, 33 ± 6%), extracellular signal regulated kinase 8 (ERK8, 31 ± 4%), ribosomal S6 kinase 1 (RSK1, 22 ± 6%), and v-erb-a erythroblastic leukemia viral oncogene homolog 4 (HER4, 21 ± 7%).

BRSK2 = BRSK2 (Homo sapiens, UniProt Q8IWQ3); conditions: BRSK2, 10 μM
Procedure: as §1

CHK1 = CHK1 (Homo sapiens, UniProt O14757); conditions: CHK1, 10 μM
Procedure: as §1

CHK2 = CHK2 (Homo sapiens, UniProt O96017); conditions: CHK2, 10 μM
Procedure: as §1

CK1δ = CK1δ (Homo sapiens, UniProt P48730)
Procedure: as §1

CLK2 = CLK2 (Homo sapiens, UniProt P49760); conditions: CLK2, 10 μM
Procedure: as §1

CSK = CSK (Homo sapiens, UniProt P41240)
Procedure: as §1

DDR2 = DDR2 (Homo sapiens, UniProt Q16832); conditions: DDR2, 10 μM
Procedure: as §1

DYRK2 = DYRK2 (Homo sapiens, UniProt Q92630); conditions: DYRK2, 10 μM
Procedure: as §1

FGF-R1 = FGF-R1 (Homo sapiens, UniProt P11362); conditions: FGF-R1, 10 μM
Procedure: as §1

HER4 = HER4 (Homo sapiens, UniProt Q15303); conditions: HER4, 10 μM
Procedure: as §1

HIPK1 = HIPK1 (Homo sapiens, UniProt Q86Z02); conditions: HIPK1, 10 μM
Procedure: as §1

IGF-1R = IGF-1R (Homo sapiens, UniProt P08069)
Procedure: as §1

IRAK1 = IRAK1 (Homo sapiens, UniProt P51617); conditions: IRAK1, 10 μM
Procedure: as §1

JNK1 = JNK1 (Homo sapiens, UniProt P45983); conditions: JNK1, 10 μM
Procedure: as §1

MARK1 = MARK1 (Homo sapiens, UniProt Q9P0L2); conditions: MARK1, 10 μM
Procedure: as §1

MARK3 = MARK3 (Homo sapiens, UniProt P27448); conditions: MARK3, 10 μM
Procedure: as §1

MARK4 = MARK4 (Homo sapiens, UniProt Q96L34); conditions: MARK4, 10 μM
Procedure: as §1

MKK1 = MKK1 (Homo sapiens, UniProt Q02750); conditions: MKK1, 10 μM
Procedure: as §1

MKK6 = MKK6 (Homo sapiens, UniProt P52564); conditions: MKK6, 10 μM
Procedure: as §1

NEK6 = NEK6 (Homo sapiens, UniProt Q9HC98); conditions: NEK6, 10 μM
Procedure: as §1

NUAK1 = NUAK1 (Homo sapiens, UniProt O60285); conditions: NUAK1, 10 μM
Procedure: as §1

PIM1 = PIM1 (Homo sapiens, UniProt P11309); conditions: PIM1, 10 μM
Procedure: as §1

PIM2 = PIM2 (Homo sapiens, UniProt Q9P1W9); conditions: PIM2, 10 μM
Procedure: as §1

PKCa = PKCa (Homo sapiens, UniProt P17252)
Procedure: as §1

ROCK 2 = ROCK 2 (Homo sapiens, UniProt O75116); conditions: ROCK 2, 10 μM
Procedure: as §1

RSK1 = RSK1 (Homo sapiens, UniProt Q15418); conditions: RSK1, 10 μM
Procedure: as §1

SGK1 = SGK1 (Homo sapiens, UniProt O00141); conditions: SGK1, 10 μM
Procedure: as §1

STK33 = STK33 (Homo sapiens, UniProt Q9BYT3); conditions: STK33, 10 μM
Procedure: as §1

SYK = SYK (Homo sapiens, UniProt P43405)
Procedure: as §1

TBK1 = TBK1 (Homo sapiens, UniProt Q9UHD2); conditions: TBK1, 10 μM
Procedure: as §1

TESK1 = TESK1 (Homo sapiens, UniProt Q15569); conditions: TESK1, 10 μM
Procedure: as §1

TIE2 = TIE2 (Homo sapiens, UniProt Q02763); conditions: TIE2, 10 μM
Procedure: as §1

VEG-FR = VEG-FR (Homo sapiens, UniProt P17948)
Procedure: as §1

p38g MAPK = p38g MAPK (Homo sapiens, UniProt P53778)
Procedure: as §1

Sequence of IGF-1R (P08069 31-1367): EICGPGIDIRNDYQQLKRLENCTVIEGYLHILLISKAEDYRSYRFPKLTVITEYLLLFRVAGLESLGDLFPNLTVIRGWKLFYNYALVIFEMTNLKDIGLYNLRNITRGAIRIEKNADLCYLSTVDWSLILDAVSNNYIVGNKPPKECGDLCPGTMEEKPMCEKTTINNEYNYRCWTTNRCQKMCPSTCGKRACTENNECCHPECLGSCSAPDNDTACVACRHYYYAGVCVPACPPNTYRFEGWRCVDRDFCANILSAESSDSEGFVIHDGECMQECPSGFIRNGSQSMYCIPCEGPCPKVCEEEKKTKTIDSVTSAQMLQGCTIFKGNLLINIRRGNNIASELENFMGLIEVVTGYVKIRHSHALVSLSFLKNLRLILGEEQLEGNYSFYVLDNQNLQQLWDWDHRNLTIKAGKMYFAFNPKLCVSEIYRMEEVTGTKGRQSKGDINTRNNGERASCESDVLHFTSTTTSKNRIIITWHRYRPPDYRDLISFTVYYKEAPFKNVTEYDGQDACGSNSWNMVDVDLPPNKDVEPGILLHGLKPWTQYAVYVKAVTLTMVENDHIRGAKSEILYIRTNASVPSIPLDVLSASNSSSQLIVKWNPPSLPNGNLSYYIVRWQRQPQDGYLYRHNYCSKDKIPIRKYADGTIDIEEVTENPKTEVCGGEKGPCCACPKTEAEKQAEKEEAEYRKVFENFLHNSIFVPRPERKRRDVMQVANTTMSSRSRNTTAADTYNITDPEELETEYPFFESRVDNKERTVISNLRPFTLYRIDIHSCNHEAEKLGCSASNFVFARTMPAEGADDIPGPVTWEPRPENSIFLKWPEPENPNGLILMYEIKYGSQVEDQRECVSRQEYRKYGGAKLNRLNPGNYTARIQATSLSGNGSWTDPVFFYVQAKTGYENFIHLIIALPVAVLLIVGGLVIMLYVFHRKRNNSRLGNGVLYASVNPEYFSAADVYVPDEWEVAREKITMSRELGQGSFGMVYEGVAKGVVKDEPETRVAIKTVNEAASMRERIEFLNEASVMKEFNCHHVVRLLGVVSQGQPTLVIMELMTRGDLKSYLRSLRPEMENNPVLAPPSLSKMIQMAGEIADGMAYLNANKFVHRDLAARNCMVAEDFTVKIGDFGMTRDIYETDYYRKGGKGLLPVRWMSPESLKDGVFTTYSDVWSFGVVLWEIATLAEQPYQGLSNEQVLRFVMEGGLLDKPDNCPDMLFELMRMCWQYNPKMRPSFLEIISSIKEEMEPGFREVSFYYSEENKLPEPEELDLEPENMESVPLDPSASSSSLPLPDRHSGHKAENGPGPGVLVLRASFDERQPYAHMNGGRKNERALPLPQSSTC
Sequence of RSK1 (Q15418 whole entry): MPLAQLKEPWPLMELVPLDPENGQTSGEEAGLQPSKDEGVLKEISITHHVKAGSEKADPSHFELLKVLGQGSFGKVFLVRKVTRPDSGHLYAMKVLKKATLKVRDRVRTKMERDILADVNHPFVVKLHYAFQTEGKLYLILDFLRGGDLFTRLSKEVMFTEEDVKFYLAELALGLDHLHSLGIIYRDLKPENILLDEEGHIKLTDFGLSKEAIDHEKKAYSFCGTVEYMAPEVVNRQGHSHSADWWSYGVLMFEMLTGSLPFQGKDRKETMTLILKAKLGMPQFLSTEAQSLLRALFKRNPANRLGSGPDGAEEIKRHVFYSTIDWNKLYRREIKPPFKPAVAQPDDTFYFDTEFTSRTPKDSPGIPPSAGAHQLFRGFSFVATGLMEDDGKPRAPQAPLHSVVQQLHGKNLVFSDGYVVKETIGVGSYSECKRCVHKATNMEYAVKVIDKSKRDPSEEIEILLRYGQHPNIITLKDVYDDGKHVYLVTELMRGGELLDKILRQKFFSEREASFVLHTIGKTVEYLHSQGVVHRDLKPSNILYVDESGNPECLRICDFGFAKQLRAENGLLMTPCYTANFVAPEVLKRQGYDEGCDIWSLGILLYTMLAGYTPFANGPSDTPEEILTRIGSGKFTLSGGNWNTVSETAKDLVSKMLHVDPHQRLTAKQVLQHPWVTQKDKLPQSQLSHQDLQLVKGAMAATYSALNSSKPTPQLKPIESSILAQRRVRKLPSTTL
Sequence of HER4 (Q15303 26-1308): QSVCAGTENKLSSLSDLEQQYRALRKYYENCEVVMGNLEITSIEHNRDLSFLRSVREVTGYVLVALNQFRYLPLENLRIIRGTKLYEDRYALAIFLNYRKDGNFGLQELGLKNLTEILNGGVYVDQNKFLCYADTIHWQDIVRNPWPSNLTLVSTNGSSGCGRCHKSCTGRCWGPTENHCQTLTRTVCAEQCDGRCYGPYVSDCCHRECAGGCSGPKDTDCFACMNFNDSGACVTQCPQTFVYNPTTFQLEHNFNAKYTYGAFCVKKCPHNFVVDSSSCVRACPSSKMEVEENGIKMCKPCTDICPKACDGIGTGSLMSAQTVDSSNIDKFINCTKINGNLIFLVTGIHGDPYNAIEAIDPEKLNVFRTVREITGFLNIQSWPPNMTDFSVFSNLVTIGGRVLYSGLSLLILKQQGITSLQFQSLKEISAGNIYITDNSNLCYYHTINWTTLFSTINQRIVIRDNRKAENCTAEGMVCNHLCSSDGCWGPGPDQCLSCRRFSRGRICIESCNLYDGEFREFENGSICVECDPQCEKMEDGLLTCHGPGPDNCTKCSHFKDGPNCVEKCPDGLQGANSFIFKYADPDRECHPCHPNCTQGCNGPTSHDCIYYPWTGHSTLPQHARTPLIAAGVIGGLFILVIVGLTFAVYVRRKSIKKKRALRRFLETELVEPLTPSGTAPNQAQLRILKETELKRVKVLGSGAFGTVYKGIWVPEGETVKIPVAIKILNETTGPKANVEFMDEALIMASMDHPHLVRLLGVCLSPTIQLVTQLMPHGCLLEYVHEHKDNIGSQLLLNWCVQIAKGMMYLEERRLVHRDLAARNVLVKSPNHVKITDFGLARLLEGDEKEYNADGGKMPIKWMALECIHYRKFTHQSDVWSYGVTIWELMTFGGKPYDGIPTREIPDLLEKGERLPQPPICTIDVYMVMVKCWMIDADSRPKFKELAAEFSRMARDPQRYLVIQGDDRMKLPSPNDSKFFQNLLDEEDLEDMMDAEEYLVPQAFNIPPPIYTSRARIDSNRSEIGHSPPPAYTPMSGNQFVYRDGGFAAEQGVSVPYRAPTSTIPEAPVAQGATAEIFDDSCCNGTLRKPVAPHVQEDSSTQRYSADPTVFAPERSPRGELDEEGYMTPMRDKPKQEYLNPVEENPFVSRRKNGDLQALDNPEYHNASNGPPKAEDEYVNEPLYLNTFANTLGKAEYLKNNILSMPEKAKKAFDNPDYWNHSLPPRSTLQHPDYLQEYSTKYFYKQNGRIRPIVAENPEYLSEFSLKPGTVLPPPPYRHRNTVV
Sequence of TESK1 (Q15569 whole entry): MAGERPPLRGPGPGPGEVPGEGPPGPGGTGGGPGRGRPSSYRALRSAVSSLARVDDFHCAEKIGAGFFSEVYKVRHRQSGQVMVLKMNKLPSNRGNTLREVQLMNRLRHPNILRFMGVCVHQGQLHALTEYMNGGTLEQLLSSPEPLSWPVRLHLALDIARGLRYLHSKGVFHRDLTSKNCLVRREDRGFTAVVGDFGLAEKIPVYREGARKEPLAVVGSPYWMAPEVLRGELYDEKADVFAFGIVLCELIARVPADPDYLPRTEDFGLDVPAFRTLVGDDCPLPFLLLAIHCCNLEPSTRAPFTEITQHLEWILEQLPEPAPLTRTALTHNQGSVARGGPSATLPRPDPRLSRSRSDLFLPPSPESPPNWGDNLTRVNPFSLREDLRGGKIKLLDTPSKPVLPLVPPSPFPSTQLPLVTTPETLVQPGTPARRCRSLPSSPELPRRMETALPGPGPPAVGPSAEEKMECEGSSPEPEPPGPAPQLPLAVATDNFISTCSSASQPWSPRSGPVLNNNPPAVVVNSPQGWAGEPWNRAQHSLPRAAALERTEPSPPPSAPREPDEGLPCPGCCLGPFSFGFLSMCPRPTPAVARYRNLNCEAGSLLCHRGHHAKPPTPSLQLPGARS
Sequence of SGK1 (O00141 whole entry): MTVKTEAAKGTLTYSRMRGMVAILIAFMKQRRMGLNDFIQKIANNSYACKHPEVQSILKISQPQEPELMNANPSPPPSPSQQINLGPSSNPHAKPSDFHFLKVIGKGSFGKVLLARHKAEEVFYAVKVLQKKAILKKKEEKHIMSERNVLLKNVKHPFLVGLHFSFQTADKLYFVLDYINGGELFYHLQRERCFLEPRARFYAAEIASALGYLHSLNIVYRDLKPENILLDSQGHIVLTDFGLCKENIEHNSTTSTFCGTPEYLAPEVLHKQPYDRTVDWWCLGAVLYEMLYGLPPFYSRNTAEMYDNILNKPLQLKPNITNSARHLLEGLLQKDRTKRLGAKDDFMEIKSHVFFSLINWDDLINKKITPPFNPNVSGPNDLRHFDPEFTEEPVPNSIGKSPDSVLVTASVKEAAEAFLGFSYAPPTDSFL
Sequence of CHK2 (O96017 whole entry): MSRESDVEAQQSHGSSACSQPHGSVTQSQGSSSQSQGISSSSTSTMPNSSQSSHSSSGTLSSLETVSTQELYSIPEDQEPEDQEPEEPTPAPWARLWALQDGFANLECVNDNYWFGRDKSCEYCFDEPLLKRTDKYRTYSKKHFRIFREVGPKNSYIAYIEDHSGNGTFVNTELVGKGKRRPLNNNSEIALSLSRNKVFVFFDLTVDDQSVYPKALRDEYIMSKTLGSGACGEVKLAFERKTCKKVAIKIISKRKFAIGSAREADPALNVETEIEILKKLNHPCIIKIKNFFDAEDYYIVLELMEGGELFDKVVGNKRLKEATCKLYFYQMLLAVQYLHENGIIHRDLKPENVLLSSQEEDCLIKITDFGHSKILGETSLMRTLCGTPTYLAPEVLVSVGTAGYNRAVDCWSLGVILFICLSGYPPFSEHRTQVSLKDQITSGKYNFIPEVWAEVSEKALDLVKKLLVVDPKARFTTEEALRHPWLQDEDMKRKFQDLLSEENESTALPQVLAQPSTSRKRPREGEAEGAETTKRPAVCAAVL

## CN(C)c1cc[n+](CCCCCCCCCCCC[n+]2ccc(N(C)C)cc2)cc1 [ICL-CCIC-0019]
Aurora B
  remaining activity at 10 µM: 102%
BRSK2
  remaining activity at 10 µM: 94%
CHK1
  remaining activity at 10 µM: 97%
CHK2
  remaining activity at 10 µM: 90%
CK1δ
  remaining activity at 10 µM: 100%
CLK2
  remaining activity at 10 µM: 101%
CSK
  remaining activity at 10 µM: 96%
DDR2
  remaining activity at 10 µM: 85%
DYRK2
  remaining activity at 10 µM: 96%
FGF-R1
  remaining activity at 10 µM: 92%
HER4
  inhibition at 10 µM: 21 ± 7%
  remaining activity at 10 µM: 79%
HIPK1
  remaining activity at 10 µM: 106%
IGF-1R
  inhibition at 10 µM: 35 ± 7%
  remaining activity at 10 µM: 65%
IRAK1
  remaining activity at 10 µM: 89%
JNK1
  remaining activity at 10 µM: 98%
MARK1
  remaining activity at 10 µM: 103%
MARK3
  remaining activity at 10 µM: 106%
MARK4
  remaining activity at 10 µM: 95%
MKK1
  remaining activity at 10 µM: 82%
MKK6
  remaining activity at 10 µM: 102%
NEK6
  remaining activity at 10 µM: 86%
NUAK1
  remaining activity at 10 µM: 103%
PIM1
  remaining activity at 10 µM: 102%
PIM2
  remaining activity at 10 µM: 103%
PKCa
  remaining activity at 10 µM: 98%
ROCK 2
  remaining activity at 10 µM: 97%
RSK1
  inhibition at 10 µM: 22 ± 6%
  remaining activity at 10 µM: 78%
SGK1
  remaining activity at 10 µM: 94%
STK33
  remaining activity at 10 µM: 99%
SYK
  remaining activity at 10 µM: 92%
TBK1
  remaining activity at 10 µM: 108%
TESK1
  remaining activity at 10 µM: 101%
TIE2
  remaining activity at 10 µM: 89%
VEG-FR
  remaining activity at 10 µM: 80%
p38g MAPK
  remaining activity at 10 µM: 99%
